This note sets out measurements from patent US6150325A, “Bicyclic tachykinins antagonists, preparation thereof and their use in pharmaceutical compositions” (A. Menarini Industrie Farmaceutiche Riunite S.r.l., priority 1995, dated 2000).

For this test, the target named is T1, NKA receptor (Mus musculus, UniProt P30549).
T1 construct: contractions of the urinary bladder in the anaesthetized mouse; from tissue; host or cells: urinary bladder of the anaesthetized animal, in vivo
T1 sequence (P30549 1-384): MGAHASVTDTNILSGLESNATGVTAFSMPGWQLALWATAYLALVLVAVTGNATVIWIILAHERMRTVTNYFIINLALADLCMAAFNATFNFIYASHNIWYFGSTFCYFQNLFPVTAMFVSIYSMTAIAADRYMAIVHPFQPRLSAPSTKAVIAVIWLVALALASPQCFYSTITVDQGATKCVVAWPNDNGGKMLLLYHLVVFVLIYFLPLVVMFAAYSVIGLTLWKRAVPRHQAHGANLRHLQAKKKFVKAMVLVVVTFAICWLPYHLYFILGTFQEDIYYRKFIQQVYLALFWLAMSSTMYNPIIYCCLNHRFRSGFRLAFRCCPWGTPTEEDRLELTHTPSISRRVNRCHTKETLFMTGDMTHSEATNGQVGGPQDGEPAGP
The test is described as follows: in vivo inhibition of agonist [betaAla8]NKA(4-10)-induced contractions of the urinary bladder after intravenous administration. The conditions noted are these: anaesthetized mouse, 10 nmol/Kg i.v. As to the method:
The capability of the compounds of the present invention to interact as agonists or antagonists with the neurokynin A (NKA) receptor has been valued in a in vitro test using the pulmonary artery of a rabbit (RPA) (Rovero et al., Neuropeptides, 1989, 13, 263-270) and their activity was determined as pKB ([…] of the dissociation constant), as described in Jenkinson et al., TiPS, 12, 53-56, 1991. For example, compound 2 has shown a pKB =8.67. The capability of the products of the present invention to interact as agonists or antagonists with NKA receptor has been valued in vivo as capability, after intravenous administration,to inhibit the agonist [betaAla^8 ] NKA (4-10)-induced contractions of the urinary bladder in the anaesthetized mouse, as described in Maggi et al., J. Pharmacol. Exp. Ther., 1991, 257, 1172. Compound 1, e.g., causes, at dose of 10 nmol/Kg i.v., an inhibitory effect of 50-70%, as it has been valued at different times. The effect lasts over a period of more than 3 hours.

“cyclo([Asn(β-D-Glc)-Asp-Trp-Phe-Dap-Leu]cyclo(2β-5β)) [Compound 1]”: the “duration of the inhibitory effect” value is recorded as “more than 3 hours”. Further, the “inhibitory effect on [betaAla8]NKA(4-10)-induced contractions of the urinary bladder” value (valued at different times) is recorded as 50-70%.
